# Measured values: patent publication US20130252886A1, “METHODS OF DELAYING AND TREATING DIABETES” (priority 2010, published 2013)
# Entries after “also recorded” stand apart in the source; their conditions may differ.
# How the values were obtained:
# Assay type in all cases: in vivo
# insulin-dependent dogs [1] = assay: Stimulated C-peptide in insulin-dependent dogs (radioimmunoassay); conditions: oral GABA 30, 60, 90 mg/kg, seven dogs
# Description: C-peptide was monitored as a way to determine the amount of endogenous insulin synthesized and secreted in these diabetic dogs. Endogenous insulin is first biosynthesized as linked A, B and C peptides. The C-peptide is removed and circulates in the blood stream. The active insulin molecule is linked A & B peptide only. Since diabetic patients administering insulin injections receive exogenous A & B peptide, the measurement of C-peptide can determine of how much endogenous insulin is produced by the individual's pancreas.
# In this study stimulated C-peptide was measured every two months. On the day of C-peptide measurements, blood was drawn at time 0 and the dog was fed stimulating C-peptide release. No exogenous insulin was given by injection to avoid suppressing endogenous insulin secretion. Blood was drawn again at 60, 90, 120 and 240 minutes. […] C-peptide was plotted as area under the curve measurements. The values for the placebo treatment have been grouped and represent all seven dogs.
# [2] = test system: Female NOD mice (NOD/ShiLtJ, Taconic); assay: Insulin requirement and blood glucose in diabetic NOD mice, GABA vs lysine controls (Example 6)
# Procedure: Female NOD mice (NOD/ShiLtJ, Taconic) were housed in accordance with NIH Animal Use and Welfare guidelines with 12 hour light-dark cycle beginning at 9 weeks of age. The animals were fed a standard rodent diet ad lib. Blood glucose was measured weekly using a Freestyle glucometer, and then twice daily once it was determined they had diabetes.
# Mice were considered diabetic if a single non-fasting blood glucose measurement was […]. For about eight weeks before the mice became diabetic, their average fasting blood glucose was 102 mg/dl. Once diabetic, blood glucose levels were measured twice daily, approximately eight hours apart. All of the mice received insulin subcutaneously twice daily and the dosage was adjusted as needed. Three diabetic mice were randomly designated as controls and were given the amino acid lysine (8 mg/kg) orally (PO) twice a day before the administration of insulin.
# diabetic female NOD mice = assay: Diabetes treatment protocol in diabetic NOD mice (GABA before insulin, BID)
# Description: Once the NOD mice became diabetic, they were shifted from the prevention/delayed onset regimen into the treatment protocol. […] The first dose of GABA was given just after removing the food from the cage and a second dose was given approximately eight hours later, just before feeding. […] Two NOD mice were maintained on insulin when they became diabetic, to serve as controls.
# The first dose of GABA was given just after removing the food from the cage and a second dose was given approximately eight hours later, just before feeding. The insulin dose administered was based on each mouse's blood glucose level.
# Female non-obese diabetic (NOD) mice (Jackson Laboratory) were used to study GABA treatment efficacy. Diabetes normally occurs in 90-100% of these mice by 30 weeks and they develop the insulitis and hypoinsulinemia that characterizes Type 1 diabetes in humans. Mice were housed in accordance with NIH Animal Use and Welfare guidelines with 12 hour light-dark cycle beginning at 8 weeks of age. Animals were fed a standard rodent diet ad lib overnight followed by removal of food from the cage for an 8 hour fast. Before and after the eight hour fast, blood glucose was measured weekly using a Freestyle Glucometer and then daily once mice were determined to be diabetic. Mice were considered diabetic if at the end of the 8 hours fast, on three consecutive days, glucose measurements were ≧200 mg/dl. Onset of diabetes usually began to occur when the mice were 12 weeks of age.
# insulin-dependent dogs [3] = assay: Clinical trial of oral GABA in naturally-occurring insulin-dependent dogs: blood glucose, fructosamine
# Procedure: These companion dogs were housed in homes, mimicking the lifestyle of diabetic humans. Based on published estimates, approximately 50% of these animals had insulitis, while others have had pancreatitis.
# The GABA was diluted in water and the owner administers it orally (PO QD) as a bolus just before feeding. […] Once randomized on day 120, all investigators were blinded as to treatment.
# As previously described in Example 5, supra, the 8 month clinical canine trial in collaboration with Purdue University was completed. Naturally-occurring diabetic dogs were housed in homes and were insulin dependent when they began the study. FIGS. 18 and 19 show the mean 10 hour fasting blood glucose (mg/dl) and mean C-peptide (ng/ml/kg) in these insulin-dependent dogs, respectively.
# FIG. 18 is a graph of the mean blood glucose in the seven dogs measured during a ten hour window. On a measurement day, the dogs were fed and given insulin. Blood glucose was then monitored at ˜8:00 AM and for every two hours until ˜6:00 PM. The mean of these values was taken and plotted in FIG. 18.
# On day 0, the mean 10 hr glucose was 310 mg/dl. From day 0 to day 60, the dogs were treated with insulin only. […] The mean blood glucose over the 10 hour measurement period dropped to 209 mg/dl by the last visit, a 33% overall improvement without a significant change in the average insulin dosage.
# NOD mouse pancreas = assay: Pancreas histology of NOD mice
# Procedure: NOD mice, as previously described in Examples 1-4, supra, were anesthetized with an intraperitoneal injection of 75 mg/kg pentobarbital (Nembutol). When mice were unresponsive to painful stimuli, the pancreas was surgically removed and placed in 10% neutral buffered formalin. Mice were then euthanized by exsanguination. The paraffin blocks of fixed pancreas were processed by automation and 5 micron sections were prepared from three levels for automated hematoxylin and eosin staining followed by aldehyde fuchsin stain for insulin. The histology slides were prepared and stained at Jackson Laboratory, Bar Harbor, Me.
# [4] = Pharmacokinetics: plasma GABA concentration in diabetic dogs (LC/MS)
# Procedure: Plasma GABA measurements were made by liquid chromatography/mass spectroscopy. Blood was drawn at 0, 60, 90, 120 and 240 minutes and plotted as area under the curve. These samples were drawn after a meal but in the absence of exogenous insulin administration, as previously described for C-peptide measurements. Blood samples were drawn and divided into serum separation or plasma separation tubes for C-peptide and pharmacokinetics studies respectively.
# This bell shaped response mimics what is seen in dose-response curves with GABA in vitro.
# [5] = Average body weight / lean body mass of NOD mice; conditions: 30 mg/kg GABA and/or 0.4 U insulin groups
# Description: FIGS. 3 and 4 show the average weight for the NOD mice in each group during the course of the experiment. The x-axis (age of mouse in weeks) corresponds to both the delayed onset and treatment regimens, depending on when the diagnosis of diabetes was made.
# female NOD mice = assay: Diabetes prevention/delayed onset study, fasting blood glucose
# Description: Normally, ninety to one hundred percent of female NOD mice, available, for example, from Jackson Laboratory, develop diabetes by 30 weeks of age. Two treatments were designed to study delaying the onset of diabetes and diabetes intervention in NOD mice. The first examined therapies in NOD mice beginning at 8 weeks of age to delay the onset of diabetes onset.
# In the diabetes prevention/delayed onset study, mice were divided into five groups. […] Group 3 received 0.4 units insulin subcutaneously just prior to consuming food.
# Female NOD mice (Jackson Laboratory) were allowed to access food ad lib overnight. A 12 hour light-dark cycle was maintained and mice were housed in accordance with the NIH Animal Care and Use guidelines. Food was removed for eight hours during the day and the fasting blood glucose was tested daily at the end of the eight hour fast.
# The control group received vegetable oil to the fur without anything else. […] The insulin only group was given 0.4 units insulin (SQ) just before feeding.
# Diabetes was defined as a fasting blood glucose ≧200 mg/dl on three consecutive days. The average of the fasting blood glucose over the three days was included in the calculation of the average for each group in the prevention data (see Table 1 and FIG. 1).
# [6] = 13 weeks of age, treatment just before feeding (30 mg/kg GABA PO and/or 0.4 U insulin SQ)
# [7] = 19 weeks of age, treatment just before feeding
# [8] = 21 weeks of age, treatment just before feeding
# [9] = 22 weeks of age, treatment just before feeding
# [10] = 24 weeks of age, treatment just before feeding
# [11] = 26 weeks of age, treatment just before feeding
molecule,measurement,setting,value
"NCCCC(=O)O [GABA, γ-aminobutyric acid]",C-peptide (area under the curve),insulin-dependent dogs [1],dose dependent increase
same,decrease in insulin compared to control mice,"[2]; 60 or 90 mg/kg GABA, over 9 weeks",4 fold
same,mice that became insulin independent,[2]; GABA treated group (4 out of 8),50%
same,blood glucose average in mice not requiring insulin,[2]; on oral GABA alone,below 150 mg/dl
same,mean blood glucose,"[2]; over 9 weeks, 60 or 90 mg/kg GABA with insulin",310 mg/dL
same,insulin dose required over the course of treatment,"diabetic female NOD mice; 60 mg/kg GABA BID, insulin dosed to keep fasting blood glucose ≦200 (Ex. 2) or ≦150 mg/dl (Ex. 4)",declined markedly; also recorded: rapidly required less insulin; also recorded: significantly less insulin over time
same,lowering blood glucose levels and insulin requirements after onset of diabetes,diabetic female NOD mice; 60 mg/kg GABA PO BID,effective treatment
same,fasting and fed blood glucose in mice that became insulin independent,diabetic female NOD mice; 60 mg/kg GABA orally over approximately 11 weeks,completely restored to normal
same,number of insulin dependent diabetic mice that became insulin independent,diabetic female NOD mice; 60 mg/kg GABA treatment,four
same,reduction in insulin dose to keep fasting blood glucose ≦150 mg/dl,diabetic female NOD mice; all diabetic mice treated with 60 mg/kg GABA,≥ 85%
same,"decrease in average insulin requirement, of the maximum dose","diabetic female NOD mice; eight diabetic mice, 60 mg/kg GABA BID",85%
same,insulin required to maintain an average weekly blood glucose of 200 mg/dl,"diabetic female NOD mice; single mouse of FIG. 15, at sacrifice",0.0025 units
same,"insulin dose at sacrifice, of the original dose","diabetic female NOD mice; single mouse of FIG. 15, diabetic 34 weeks, on insulin and GABA throughout",less than 1%
same,insulin requirement to maintain fasting blood glucose ≦150 mg/dl,diabetic female NOD mice; three of the eight mice treated with GABA (FIG. 6),eventually came to zero
same,average reduction in blood glucose levels from day 60 to day 120,insulin-dependent dogs [3]; 30 mg/kg GABA PO QD,32%
same,reduction in average blood glucose levels at day 120 compared to the pre-treatment average (day −10 through day 60),insulin-dependent dogs [3]; 30 mg/kg GABA PO QD,40%
same,overall improvement of mean 10 hour blood glucose,"insulin-dependent dogs [3]; day 0 to last visit, without significant change in average insulin dosage",33%
same,mean blood glucose over the 10 hour measurement period,"insulin-dependent dogs [3]; seven dogs, last visit, GABA escalated 30, 60, 90 mg/kg, day 0 value 310 mg/dl",209 mg/dL
same,fasting blood glucose control,"insulin-dependent dogs [3]; six dogs, 30 mg/kg GABA PO QD from day 60, with insulin, 30 mg/kg",downward decrease in fasting blood glucose; also recorded: substantially improved
same,mean fructosamine level,"insulin-dependent dogs [3]; six dogs, treatment days 60-120 with 30 mg/kg GABA vs pretreatment days 0-59 (p=0.007)",decline of the mean fructosamine level
same,"pancreatic histology, islets and inflammation","NOD mouse pancreas; mouse that remained on GABA (and insulin) until sacrifice, FIG. 15",regenerated islets and little to no inflammation
same,pancreatic histology after stopping GABA treatment,"NOD mouse pancreas; mouse weaned off insulin, sacrificed at 64 weeks, FIG. 14",causes the inflammation to return to the pancreas
same,change of plasma GABA levels at visit 14,[4]; dose raised to 90 mg/kg,decreases two fold
same,increase of plasma GABA levels between visit 8 and visit 12,[4]; oral GABA dose doubled (30 to 60 mg/kg),~80 fold
same,average weight / lean body mass,"[5]; FIGS. 3 and 4, 30 mg/kg",maintained the lowest weights; also recorded: maintains lean body mass
same,Average Fasting Blood Glucose,"female NOD mice; 13 weeks of age, Group 5 fasting GABA, 30 mg/kg 2 hours before feeding",86 mg/dL
same,Average Fasting Blood Glucose,female NOD mice; [6],80 mg/dL
same,Average Fasting Blood Glucose,"female NOD mice; 15 weeks of age, Group 5 fasting GABA, 30 mg/kg 2 hours before feeding",97 mg/dL
same,Average Fasting Blood Glucose,"female NOD mice; 17 weeks of age, Group 5 fasting GABA, 30 mg/kg 2 hours before feeding",100 mg/dL
same,Average Fasting Blood Glucose,"female NOD mice; 19 weeks of age, Group 5 fasting GABA, 30 mg/kg 2 hours before feeding",172 mg/dL
same,Average Fasting Blood Glucose,female NOD mice; [7],127 mg/dL
same,Average Fasting Blood Glucose,"female NOD mice; 21 weeks of age, Group 5 fasting GABA, 30 mg/kg 2 hours before feeding",239 mg/dL
same,Average Fasting Blood Glucose,female NOD mice; [8],138 mg/dL
same,mice alive and diabetes free,"female NOD mice; 22 weeks of age, Group 2, 30 mg/kg GABA PO just before feeding (4/4 mice)",100%
same,mice that became diabetic,"female NOD mice; 22 weeks of age, Group 5, 30 mg/kg GABA under fasting conditions",50%
same,Average Fasting Blood Glucose,"female NOD mice; 22 weeks of age, Group 5 fasting GABA, 30 mg/kg 2 hours before feeding",266 mg/dL
same,Average Fasting Blood Glucose,female NOD mice; [9],173 mg/dL
same,Average Fasting Blood Glucose,"female NOD mice; 24 weeks of age, Group 5 fasting GABA, 30 mg/kg 2 hours before feeding",265 mg/dL
same,Average Fasting Blood Glucose,female NOD mice; [10],152 mg/dL
same,average fasting blood glucose compared with other treatment groups,female NOD mice; [10],significantly lower
same,average fasting blood glucose compared with other groups,"female NOD mice; 24 weeks, Group 5, 30 mg/kg GABA under fasting conditions",significantly higher
same,Average Fasting Blood Glucose,"female NOD mice; 26 weeks of age, Group 5 fasting GABA, 30 mg/kg 2 hours before feeding",226 mg/dL
same,Average Fasting Blood Glucose,female NOD mice; [11],253 mg/dL
same,prevention / delay of diabetes onset,"female NOD mice; Group 2, 30 mg/kg GABA just before feeding",delayed the longest; also recorded: most successful prevention treatment
same,effectiveness of prevention treatment,"female NOD mice; Group 5, 30 mg/kg GABA under fasting conditions, vs GABA just before feeding",less effective
"NCCCC[C@H](N)C(=O)O [lysine, reference compound]",insulin requirements,"[2]; range over the 9 week study period, GABA 60 or 90 mg/kg or lysine 8 mg/kg PO BID before insulin",0.030-0.047 units/day
"Insulin: exogenous insulin given subcutaneously, 0.4 units just prior to consuming food [reference compound]",average weight / lean body mass,[5]; FIGS. 3 and 4,increased body mass throughout the study
same,Average Fasting Blood Glucose,female NOD mice; [6],82 mg/dL
same,Average Fasting Blood Glucose,"female NOD mice; 15 weeks of age, treatment just before feeding",114 mg/dL
same,Average Fasting Blood Glucose,"female NOD mice; 17 weeks of age, treatment just before feeding",162 mg/dL
same,Average Fasting Blood Glucose,female NOD mice; [7],134 mg/dL
same,Average Fasting Blood Glucose,female NOD mice; [8],150 mg/dL
same,Average Fasting Blood Glucose,female NOD mice; [9],188 mg/dL
same,Average Fasting Blood Glucose,female NOD mice; [10],195 mg/dL
same,Average Fasting Blood Glucose,female NOD mice; [11],260 mg/dL
